Measured values taken from patent EP0540090A2, “Liquid cleaning compositions” (UNILEVER N.V., priority 1991, dated 1993).
Where two headings read alike, the source gives them in different places.

Tests used:
[1] = Precursor solubility in the liquid phase (2:1 nonionic surfactant blend Vista NI and Synperonic A3), by GC (TAED) and HPLC (rest)
[2] = Storage stability of precursor and percarbonate in the non-aqueous liquid formulation of Example 1; conditions: Example 1 formulation, after storage for 8 weeks at ambient temperature
Protocol: The following formulation containing various types of precursors was tested for percarbonate and precursor stability:

[3] = 2:1 nonionic surfactant combination (Vista NI and Synperonic A3), ambient temperature
[4] = 2:1 nonionic surfactant combination (Vista NI and Synperonic A3), ambient temperature, molar solubility multiplied by number of active groups

| Compound | % w/w dissolved [1] | mmol% active groups dissolved [1] | % w/w dissolved [1, 3] | mmol% active groups dissolved [1, 4] | stability precursor [2] |
| --- | --- | --- | --- | --- | --- |
| 2-(N,N,N-trimethylammonium)ethyl sodium 4-sulphophenyl carbonate [Compound B] | <0.025 % w/w | <0.08 mmol% |  |  |  |
| C[N+](C)(C)c1ccc(C(=O)Oc2ccc(S(=O)(=O)[O-])cc2)cc1 [Compound E] |  |  | <0.01 % w/w | <0.03 mmol% |  |
| C[N+](C)(C)Cc1ccc(C(=O)Oc2ccc(S(=O)(=O)[O-])cc2)cc1 [Compound A, 1-[4-(N,N,N-trimethylammoniummethyl)benzoyloxy] benzene-4-sulphonate] |  |  | <0.05 % w/w | <0.14 mmol% | 88% **) |
